In ChEMBL document CHEMBL1201862, “PubChem BioAssay data set” (2004):
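Compound exposure: 48 hours, 5 concentrations, 96-well plates. GI50: concentration for 50% inhibition of growth.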 The source made the active and inactive calls. Rule as the data show it: active = GI50 up to about 1.1 µM and inactive = higher.

Experiments:
Experiment in all cases: NCI anticancer screen, dose series, 48 h
[1] = tested on: EKVX
[2] = tested on: HT-29
[3] = tested on: NCI-H23
[4] = tested on: NCI-H460
[5] = tested on: OVCAR-8
[6] = tested on: IGROV-1
[7] = tested on: HL-60
[8] = tested on: TK-10
[9] = tested on: SN12C
[10] = tested on: RPMI-8226
[11] = tested on: SK-MEL-28
[12] = tested on: SK-MEL-5
[13] = tested on: CAKI-1
[14] = tested on: SF-268
[15] = tested on: HOP-62

Measured: GI50

CCOc1ccc(/C=C2/C(=O)N=C(N)N=C2N)cc1OCC
inactive: [1] > 100 µM | [2] > 100 µM | [3] > 100 µM | [4] > 100 µM | [5] > 100 µM | [6] > 100 µM | [7] > 100 µM | [8] > 100 µM | [9] > 100 µM | [10] > 100 µM | [11] > 100 µM | [12] > 100 µM | [13] > 100 µM

Cc1ccccc1N(CCC#N)C1=NN(C(=O)CC(=O)Nc2ccccc2)C(c2ccccc2)C1 (stereo not drawn)
inactive: [14] > 100 µM | [1] > 100 µM | [2] > 100 µM | [3] > 100 µM | [4] > 100 µM | [5] > 100 µM | [6] > 100 µM | [7] > 100 µM | [9] > 100 µM | [15] > 100 µM | [10] > 100 µM | [11] > 100 µM | [12] > 100 µM

COc1nc2c(c(O)c(C)c(=O)n2OC2OC(COC(C)=O)C(OC(C)=O)C(OC(C)=O)C2OC(C)=O)c(=O)n1C (stereo not drawn)
inactive: [14] > 100 µM | [1] > 100 µM | [2] > 100 µM | [3] > 100 µM | [4] > 100 µM | [5] > 100 µM | [6] > 100 µM | [8] > 100 µM | [9] > 100 µM | [15] > 100 µM | [11] > 100 µM | [12] > 100 µM

CCOC1=C2N=C(C(CC)c3ccccc3F)N=C2C(=O)c2ccccc21 (stereo not drawn)
inactive: [14] > 100 µM | [1] > 100 µM | [2] > 100 µM | [3] > 100 µM | [4] > 100 µM | [5] > 100 µM | [7] > 100 µM | [8] 3.27 µM | [9] > 100 µM | [15] > 100 µM | [10] > 100 µM | [11] > 100 µM | [13] > 100 µM

O=C(c1ccccc1)c1c(CNCc2ccccc2)n(C(=O)c2ccccc2)c2ccccc12
inactive: [14] 43.4 µM | [2] 24.6 µM | [3] 17.1 µM | [4] 14.5 µM | [5] 37.4 µM | [6] > 100 µM | [7] 23.3 µM | [8] > 100 µM | [15] 80.5 µM | [10] 11.6 µM | [11] > 100 µM | [12] 29.9 µM | [13] 69.3 µM

Cc1cc2c(C)nn(Cc3ccccc3Cl)c2c(C#N)c1C
inactive: [14] > 100 µM | [1] > 100 µM | [2] > 100 µM | [3] > 100 µM | [4] > 100 µM | [5] > 100 µM | [6] > 100 µM | [7] > 100 µM | [8] > 100 µM | [9] > 100 µM | [15] > 100 µM | [10] > 100 µM | [11] > 100 µM

NC(=O)N/N=C(/c1nc2ccc([N+](=O)[O-])cc2nc1O)C(O)c1ccco1 (stereo not drawn)
inactive: [14] 63.4 µM | [2] 46.2 µM | [3] > 100 µM | [4] 59.6 µM | [5] > 100 µM | [6] 73.3 µM | [7] 13.1 µM | [8] > 100 µM | [9] 17.4 µM | [15] 35.3 µM | [10] 43 µM | [11] 96.6 µM | [12] 30 µM | [13] 61.7 µM

C/C=C/C#CC#C/C=C/C=C/C(O)CCO (stereo not drawn)
inactive: [14] > 23.1 µM | [1] > 23.1 µM | [2] > 23.1 µM | [3] > 23.1 µM | [4] > 23.1 µM | [5] > 23.1 µM | [6] > 23.1 µM | [7] > 18.1 µM | [8] > 23.1 µM | [9] > 23.1 µM | [15] > 23.1 µM | [10] > 23.1 µM | [11] > 23.1 µM | [12] > 23.1 µM | [13] > 23.1 µM

C=CCNC(=S)NNC(=O)c1c(C)nc2sccn12
inactive: [14] > 100 µM | [1] > 100 µM | [2] > 100 µM | [3] > 100 µM | [4] > 100 µM | [5] > 100 µM | [6] > 100 µM | [7] > 100 µM | [8] > 100 µM | [9] > 100 µM | [15] > 100 µM | [11] > 100 µM | [12] > 100 µM | [13] > 100 µM

CC(=O)OC1CC2(C)OC(Cc3ccccc32)O1 (stereo not drawn)
inactive: [14] > 100 µM | [1] > 100 µM | [2] > 100 µM | [3] > 100 µM | [4] > 100 µM | [5] > 100 µM | [6] > 100 µM | [7] > 100 µM | [8] > 100 µM | [9] > 100 µM | [15] > 100 µM | [10] > 100 µM | [11] > 100 µM
